In ChEMBL document CHEMBL4842376, “Design, synthesis and biological evaluation of novel hybrids targeting mTOR and HDACs for potential treatment of hepatocellular carcinoma” (Eur J Med Chem, 2021):
The source made the active and inactive calls. No cut-off for these calls is given here.

Legend:
[1] = Metabolic stability in rat liver microsomes assessed as parent compound remaining at 10 ug/ml measured after 1 hr in the presence of NADPH by HPLC analysis; type: ADME, Microsome; conditions: at 10 µg/mL; for Stabilty: microsomes, 1 h
[2] = test system: Hep 3B2; assay: cells; type: functional, cell-based; conditions: Homo sapiens, Hep3B, 72 h
Description: Antiproliferative activity against human Hep3B cells assessed as inhibition of cell growth measured after 72 hrs by MTT assay

[3] = test system: MDA-MB-231; assay: cells; type: functional, cell-based; conditions: Homo sapiens, MDA-MB-231, 72 h
Description: Antiproliferative activity against human MDA-MB-231 cells assessed as inhibition of cell growth measured after 72 hrs by MTT assay

[4] = test system: HCT-116; assay: cells; type: functional, cell-based; conditions: Homo sapiens, HCT-116, 72 h
Description: Antiproliferative activity against human HCT-116 cells assessed as inhibition of cell growth measured after 72 hrs by MTT assay

[5] = test system: SK-HEP1; assay: cells; type: functional, cell-based; conditions: Homo sapiens, SK-HEP1, 72 h
Description: Antiproliferative activity against human SK-HEP1 cells assessed as inhibition of cell growth measured after 72 hrs by MTT assay

[6] = test system: HepG2; assay: Antiproliferative activity against human HepG2 cells assessed as inhibition of cell growth measured after 72 hrs by MTT assay; type: functional, cell-based; conditions: HepG2, 72 h
[7] = test system: MCF7; assay: cells; type: functional, cell-based; conditions: Homo sapiens, MCF7, 72 h
Description: Antiproliferative activity against human MCF7 cells assessed as inhibition of cell growth measured after 72 hrs by MTT assay

[8] = test system: HeLa; assay: cells; type: functional, cell-based; conditions: Homo sapiens, 72 h
Description: Antiproliferative activity against human HeLa cells assessed as inhibition of cell growth measured after 72 hrs by MTT assay

[9] = test system: SNU-423; assay: Antiproliferative activity against human SNU-423 cells assessed as inhibition of cell growth measured after 72 hrs by MTT assay; type: functional, cell-based; conditions: SNU-423, 72 h
[10] = test system: A549; assay: cells; type: functional, cell-based; conditions: Homo sapiens, A549, 72 h
Description: Antiproliferative activity against human A549 cells assessed as inhibition of cell growth measured after 72 hrs by MTT assay

[11] = test system: PLC-PRF-5; assay: Antiproliferative activity against human PLC-PRF-5 cells assessed as inhibition of cell growth measured after 72 hrs by MTT assay; type: functional, cell-based; conditions: PLC-PRF-5, 72 h
[12] = test system: L02; assay: cells; type: ADME, cell-based; conditions: Homo sapiens, L02, 72 h
Description: Cytotoxicity against human L02 cells assessed as reduction in cell viability measured after 72 hrs by MTT assay

[13] = test system: Bel-7402; assay: Antiproliferative activity against human Bel-7402 cells assessed as inhibition of cell growth measured after 72 hrs by MTT assay; type: functional, cell-based; conditions: Bel-7402, 72 h
[14] = test system: CNE-2; assay: cells; type: functional, cell-based; conditions: Homo sapiens, CNE-2, 72 h
Description: Antiproliferative activity against human CNE-2 cells assessed as inhibition of cell growth measured after 72 hrs by MTT assay

[15] = test system: Huh-7; assay: cells; type: functional, cell-based; conditions: Homo sapiens, Huh-7, 72 h
Description: Antiproliferative activity against human Huh-7 cells assessed as inhibition of cell growth measured after 72 hrs by MTT assay

[16] = molecular target: T1, Protein deacetylase HDAC6 (Homo sapiens) (UniProt Q9UBN7); assay: Inhibition of HDAC6 (unknown origin) at 1 uM using Ac-peptide as a substrate pretreated for 15 mins followed by substrate addition relative to control
T1 sequence (whole entry): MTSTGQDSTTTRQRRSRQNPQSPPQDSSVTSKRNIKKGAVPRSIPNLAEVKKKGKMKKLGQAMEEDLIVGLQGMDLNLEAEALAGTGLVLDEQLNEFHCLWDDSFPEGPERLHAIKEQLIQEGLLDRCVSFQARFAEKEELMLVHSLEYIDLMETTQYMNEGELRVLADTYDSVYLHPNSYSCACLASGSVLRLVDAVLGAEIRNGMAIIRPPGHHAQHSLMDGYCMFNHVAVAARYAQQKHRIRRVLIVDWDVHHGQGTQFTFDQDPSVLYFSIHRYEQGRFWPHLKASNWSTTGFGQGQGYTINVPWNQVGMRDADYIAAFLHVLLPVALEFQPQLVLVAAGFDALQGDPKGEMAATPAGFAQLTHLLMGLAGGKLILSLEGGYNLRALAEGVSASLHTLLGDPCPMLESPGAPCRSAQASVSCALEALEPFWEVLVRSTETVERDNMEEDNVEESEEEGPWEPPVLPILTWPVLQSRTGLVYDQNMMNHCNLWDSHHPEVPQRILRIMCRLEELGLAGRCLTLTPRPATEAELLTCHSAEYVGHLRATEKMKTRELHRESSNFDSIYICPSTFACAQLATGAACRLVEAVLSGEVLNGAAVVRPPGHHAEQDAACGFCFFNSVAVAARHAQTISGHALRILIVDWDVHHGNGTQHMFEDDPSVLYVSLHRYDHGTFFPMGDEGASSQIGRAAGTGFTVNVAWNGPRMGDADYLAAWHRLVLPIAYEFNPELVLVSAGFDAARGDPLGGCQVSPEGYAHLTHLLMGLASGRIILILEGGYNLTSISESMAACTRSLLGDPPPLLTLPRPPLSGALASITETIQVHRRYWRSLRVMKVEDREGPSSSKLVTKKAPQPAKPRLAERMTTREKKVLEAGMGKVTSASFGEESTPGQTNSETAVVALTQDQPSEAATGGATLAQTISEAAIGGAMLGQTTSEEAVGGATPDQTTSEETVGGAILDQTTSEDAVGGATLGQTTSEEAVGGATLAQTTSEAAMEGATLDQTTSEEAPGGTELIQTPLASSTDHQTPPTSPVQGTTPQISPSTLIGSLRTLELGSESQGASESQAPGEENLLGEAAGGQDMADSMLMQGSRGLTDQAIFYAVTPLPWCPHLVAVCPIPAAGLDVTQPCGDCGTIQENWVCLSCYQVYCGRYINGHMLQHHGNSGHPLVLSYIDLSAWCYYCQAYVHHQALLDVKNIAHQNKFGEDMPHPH

[17] = molecular target: Serine/threonine-protein kinase mTOR (Homo sapiens, UniProt P42345); assay: Inhibition of mTOR (unknown origin) at 1 uM using U-Light-4E-BP1 peptide as a substrate in the presence of ATP incubated for 30 mins by Lance ultra assay relative to control
[18] = molecular target: T2, Protein deacetylase HDAC6 (Homo sapiens, UniProt Q9UBN7); assay: Inhibition of HDAC6 (unknown origin) using Ac-peptide as a substrate pretreated for 15 mins followed by substrate addition
T2 sequence (Q9UBN7 whole entry): T1 sequence (whole entry)

[19] = molecular target: T3, Histone deacetylase (Homo sapiens) (UniProt Q13547+O15379+Q9UBN7+Q92769+Q9UQL6+Q8WUI4+Q9BY41+Q96DB2+P56524+Q9UKV0+Q969S8); assay: Inhibition of HDAC in human HepG2 cells assessed as upregulation of histone H3 acetylation at 6 uM measured after 24 hrs by western blot analysis; type: cell-based
[20] = molecular target: T4, Histone deacetylase 8 (Homo sapiens, UniProt Q9BY41); assay: Inhibition of HDAC8 (unknown origin) using Ac-peptide as a substrate pretreated for 15 mins followed by substrate addition
T4 sequence (Q9BY41 whole entry): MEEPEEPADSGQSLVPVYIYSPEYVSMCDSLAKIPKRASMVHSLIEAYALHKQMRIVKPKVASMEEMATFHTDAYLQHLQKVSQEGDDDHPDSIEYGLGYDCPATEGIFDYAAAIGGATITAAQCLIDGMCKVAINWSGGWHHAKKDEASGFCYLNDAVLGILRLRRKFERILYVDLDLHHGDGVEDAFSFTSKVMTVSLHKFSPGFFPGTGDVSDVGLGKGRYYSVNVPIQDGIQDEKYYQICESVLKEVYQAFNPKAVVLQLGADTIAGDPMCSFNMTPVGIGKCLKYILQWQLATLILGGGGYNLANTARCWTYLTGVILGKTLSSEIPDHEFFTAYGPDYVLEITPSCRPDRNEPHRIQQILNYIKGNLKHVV

[21] = molecular target: Histone deacetylase 3 (Homo sapiens, UniProt O15379); assay: Inhibition of HDAC3 (unknown origin) using Ac-peptide as a substrate pretreated for 15 mins followed by substrate addition
Sequence of Histone deacetylase 3 (O15379 whole entry): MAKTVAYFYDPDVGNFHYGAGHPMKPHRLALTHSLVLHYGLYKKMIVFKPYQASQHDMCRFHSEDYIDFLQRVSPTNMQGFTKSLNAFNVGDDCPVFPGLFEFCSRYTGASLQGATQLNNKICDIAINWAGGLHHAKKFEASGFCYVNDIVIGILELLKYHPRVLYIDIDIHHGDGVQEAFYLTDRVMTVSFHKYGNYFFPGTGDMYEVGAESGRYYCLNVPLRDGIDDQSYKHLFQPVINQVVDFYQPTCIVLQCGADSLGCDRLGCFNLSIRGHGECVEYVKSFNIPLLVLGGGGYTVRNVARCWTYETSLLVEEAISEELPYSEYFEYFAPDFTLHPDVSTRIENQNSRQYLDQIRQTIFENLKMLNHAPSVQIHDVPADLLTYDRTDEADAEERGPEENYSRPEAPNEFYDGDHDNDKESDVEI

[22] = molecular target: Histone deacetylase 2 (Homo sapiens, UniProt Q92769)
Sequence of Histone deacetylase 2 (Q92769 whole entry): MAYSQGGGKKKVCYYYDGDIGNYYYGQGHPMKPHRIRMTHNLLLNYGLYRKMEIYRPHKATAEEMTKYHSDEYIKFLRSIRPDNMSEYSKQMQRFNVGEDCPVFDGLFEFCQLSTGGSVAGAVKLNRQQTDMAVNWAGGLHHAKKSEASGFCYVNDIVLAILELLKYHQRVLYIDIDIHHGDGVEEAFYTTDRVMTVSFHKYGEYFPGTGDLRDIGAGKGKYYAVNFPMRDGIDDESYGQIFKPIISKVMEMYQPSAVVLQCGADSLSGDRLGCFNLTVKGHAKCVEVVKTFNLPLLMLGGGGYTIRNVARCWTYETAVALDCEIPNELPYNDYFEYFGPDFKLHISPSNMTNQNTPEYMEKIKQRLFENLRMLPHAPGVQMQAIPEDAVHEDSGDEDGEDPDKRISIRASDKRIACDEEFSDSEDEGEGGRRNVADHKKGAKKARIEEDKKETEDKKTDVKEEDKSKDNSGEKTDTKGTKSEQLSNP

[23] = molecular target: Histone deacetylase 1 (Homo sapiens, UniProt Q13547); assay: Inhibition of HDAC1 (unknown origin) using Ac-peptide as a substrate pretreated for 15 mins followed by substrate addition
Sequence of Histone deacetylase 1 (Q13547 whole entry): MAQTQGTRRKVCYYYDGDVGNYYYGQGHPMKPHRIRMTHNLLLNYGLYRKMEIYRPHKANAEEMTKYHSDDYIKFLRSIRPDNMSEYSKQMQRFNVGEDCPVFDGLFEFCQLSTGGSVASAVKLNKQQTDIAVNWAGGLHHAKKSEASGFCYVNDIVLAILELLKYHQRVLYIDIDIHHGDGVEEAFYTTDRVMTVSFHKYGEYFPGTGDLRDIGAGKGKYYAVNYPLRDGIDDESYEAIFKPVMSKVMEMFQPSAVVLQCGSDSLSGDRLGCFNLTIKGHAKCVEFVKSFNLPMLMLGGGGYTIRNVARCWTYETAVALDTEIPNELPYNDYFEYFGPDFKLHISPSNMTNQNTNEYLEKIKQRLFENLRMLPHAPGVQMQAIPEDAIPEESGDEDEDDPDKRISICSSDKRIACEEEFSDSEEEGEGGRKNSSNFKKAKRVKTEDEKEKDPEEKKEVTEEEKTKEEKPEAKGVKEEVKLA

[24] = molecular target: T3, Histone deacetylase (Homo sapiens); assay: Inhibition of HDAC in human HepG2 cells assessed as upregulation of alpha-tubulin acetylation at 6 uM measured after 24 hrs by western blot analysis; type: cell-based
[25] = in vitro; conditions: human, L02 cells versus HepG2 cells
Description: Selectivity index, ratio of IC50 for cytotoxicity against human L02 cells to IC50 for antiproliferative activity against human HepG2 cells

| SMILES | IC50 [2] | IC50 [3] | IC50 [4] | IC50 [5] | IC50 [6] | IC50 [7] | IC50 [8] | IC50 [9] | IC50 [10] | IC50 [11] | IC50 [13] | IC50 [14] | IC50 [15] | inhibition [16] | inhibition [17] | other results |
| --- | --- | --- | --- | --- | --- | --- | --- | --- | --- | --- | --- | --- | --- | --- | --- | --- |
| CC(C)n1nc(-c2ccc3oc(N)nc3c2)c2c(N)ncnc21 [SAPANISERTIB] | 4.43 µM | 0.031 µM | 0.048 µM | 0.008 µM | 2.13 µM | 0.053 µM | 0.036 µM | 0.015 µM | 0.174 µM | 6.63 µM | > 100 µM | 0.101 µM | 0.007 µM | – | – | Stabilty [1]: Stable; IC50 [12]: 0.28 µM |
| Nc1ncnc2c1c(-c1cnc3[nH]ccc3c1)nn2CCCCCCCCCC(=O)NO | 17.2 µM | 10.1 µM | 18.7 µM | 23.5 µM | 11.7 µM | 23.2 µM | 7.56 µM | 8.16 µM | 6.55 µM | 34.2 µM | 42.1 µM | 2.2 µM | 10.1 µM | 98.3% | 97.6% | – |
| Nc1nc2cc(-c3nn(CCCCCCCC(=O)NO)c4ncnc(N)c34)ccc2o1 | 10.3 µM | 2.9 µM | 3.15 µM | 10.7 µM | 3.64 µM | 7.22 µM | 12.9 µM | 0.28 µM | 8.36 µM | 30.5 µM | 13.2 µM | 2.25 µM | 2.77 µM | 99.1% | 99.6% | remaining at 1 h, 10 ug/ml ([1]; liver microsomes, read-out: Stabilty): 63.9%; IC50 [18]: 0.00673 µM; inhibition [19]: Active; IC50 [20]: 0.334 µM; IC50 [21]: 0.0071 µM; IC50 [12]: 8.04 µM; IC50 [22]: 0.0034 µM; IC50 [23]: 0.0025 µM; inhibition [24]: Active; selectivity ratio [25]: 2.21 |
| O=C(CCCCCCC(=O)Nc1ccccc1)NO [VORINOSTAT] | – | – | – | – | – | – | – | 0.079 µM | – | 2.22 µM | 27.4 µM | – | – | – | – | Stabilty [1]: Stable |
| Nc1ncnc2c1c(-c1cnc3[nH]ccc3c1)nn2CCCCCCC(=O)NO | 26.2 µM | 37.7 µM | 9.86 µM | 14.7 µM | 10.3 µM | 19.8 µM | 22 µM | 7.5 µM | 50 µM | > 50 µM | 30.8 µM | 19.5 µM | 50.9 µM | 99.1% | 98.7% | – |
| Nc1nc2cc(-c3nn(CCCCC(=O)NO)c4ncnc(N)c34)ccc2o1 | 33.7 µM | 21.2 µM | 34 µM | 6.4 µM | 2.1 µM | 14 µM | 32.2 µM | 3.03 µM | > 100 µM | 29.6 µM | 2.4 µM | > 50 µM | 9.22 µM | 95.1% | 99.4% | – |
| Nc1nc2cc(-c3nn(CCCCCCCCC(=O)NO)c4ncnc(N)c34)ccc2o1 | 8.89 µM | 30.3 µM | 2.98 µM | > 100 µM | 2.61 µM | 42.1 µM | 10.2 µM | 4.94 µM | 13.2 µM | 24 µM | > 100 µM | 3.24 µM | 1.47 µM | 99% | 99.3% | – |
| Nc1nc2cc(-c3nn(CCCCCCCCCC(=O)NO)c4ncnc(N)c34)ccc2o1 | 28.8 µM | > 50 µM | 23.1 µM | 14.1 µM | 28.6 µM | > 50 µM | > 50 µM | > 50 µM | > 50 µM | > 100 µM | > 50 µM | 36.8 µM | 41.2 µM | 98.2% | 92.4% | – |
| Nc1nc2cc(-c3nn(CCCCCC(=O)NO)c4ncnc(N)c34)ccc2o1 | 34.2 µM | 19 µM | 21.5 µM | 3.08 µM | 1.99 µM | 12.4 µM | 15.4 µM | 12.6 µM | > 100 µM | > 50 µM | 2.03 µM | 37.6 µM | 9.91 µM | 97.8% | 100% | – |
| Nc1ncnc2c1c(-c1cnc3[nH]ccc3c1)nn2CCCCCCCC(=O)NO | 16.3 µM | 15.8 µM | 6.76 µM | 3.95 µM | 5.63 µM | 7.57 µM | 29.1 µM | 5.4 µM | 51 µM | 35.9 µM | 17.4 µM | 8.99 µM | 23.5 µM | 100% | 98.7% | – |
